Residues, ends and D or L forms follow the SMILES beside them. *: point of attachment. Butanoyl(4-pyren-1-yl) = O=C(CCCc1ccc2ccc3cccc4ccc1c2c34)*; Palmitoyl = CCCCCCCCCCCCCCCC(=O)*

One data set relates to spinal cord. The settings on record: rat, in vivo. The protocol:
Spinal Cord Injection Procedure. Rats were anesthetized using 45 mg/kg Pentobarbital (NEMBUTAL). A laminectomy was performed to expose spinal segment T13 and a stereotaxic micromanipulator (Kopf Instruments) with a Hamilton syringe attached to a 32 gauge needle was used to inject 6 μl at 333 nl/sec of isoosmotic glucose (vehicle) or peptide amphiphile into the spinal cord at T10 at a depth of 1.5 mm. The needle was kept inside the site of injection for 2 minutes after each injection in order to allow the IKVAV-PA to gel without disturbance.

The test system of data set [1] is neural progenitor cells (NPCs). Put plainly: Cell body area and neurite length of neurons differentiated from NPCs. Type of data set: cell-based, mouse. The following applies: after 1 day. On the procedure:
(§1) Cell Culture and In Vitro Encapsulation in IKVAV-PA nano-networks. Neural progenitor cells (NPCs) were cultured as previously described (See, e.g., Zhu et al., J. Neurosci. Res. 59, 312 (2000)). Briefly, the cortices of E13 mouse embryos were dissected and plated on un-treated petri dishes in DMEM/F12 media supplemented with bFGF (10 ng/ml). After four days, mechanically and enzymatically dissociated NPCs and undissociated neurospheres (e.g., undissociated NPC aggregates) were plated onto appropriate substrates (e.g., encapsulated in IKVAV-peptide amphiphile (PA), EQS-PA, or alginate gels, or cultured on laminin, poly-D-lysine, or IKVAV peptide coated cover slips). In all cases this was taken as 0 days in vitro. […]
(§2) Immunocytochemistry. […] Cell imaging was done with a high resolution Cool Snap camera attached to a Nikon TE-2000 fluorescence microscope interfaced with a PC running MetaView imaging software, or an Axiocam camera attached to a Zeiss Axiovert 200 fluorescence microscope interfaced with a PC running AxioVision imaging software.
(§3) Cell Counts. Randomly selected fields of view were imaged for different experimental conditions and cells counted using ImageJ (Scion Corporation) morphometric analysis software. […]

Data set [2] has as its system neural progenitor cells (NPCs). The data set can be described thus: NPC differentiation on two-dimensional coated substrates. Type of data set: cell-based, mouse. The settings on record: for differentiation into neurons on 2D substrate: cells plated for 1 day. On the procedure: Two-dimensional cultures. For IKVAV peptide experiments, the same 12 mm glass coverslips used for the three-dimensional experiments were soaked in ethanol to encourage hydrophilicity, then spin-coated with 50 μL of a 1 mg/mL IKVAV peptide solution. For IKVAV-PA experiments, the coverslips were coated with PDL (e.g., to encourage adsorption) and subsequently with IKVAV-PA solution. In both cases, the cover slips were allowed to dry overnight and then washed three times with distilled water to remove weakly adherent material before the addition of cell suspension.
NPC differentiation on a two dimensional (2D) substrate coated with IKVAV-PA nanofibers was investigated.

Data set [3] relates to neural progenitor cells (NPCs). Put plainly: Immunocytochemistry of NPC differentiation (β-tubulin III neurons, GFAP astrocytes) in 3D scaffolds. Type of data set: cell-based, mouse. On the procedure: as §1, §2, §3
Another data set relates to injured spinal cord. Put plainly: Stability of fluorescent peptide amphiphile gel in injured spinal cord. It counts as in vivo, mouse. The source says:
Mouse spinal cord injuries, amphiphile injections and animal care. All animal care and surgical interventions were undertaken in strict accordance with the Public Health Service Policy on Humane Care and Use of Laboratory Animals, Guide for the Care and Use of Laboratory Animals (Institute of Laboratory Animal Resources, National Research Council, 1996). The Institutional Animal Care and Use Committee approved of all operative procedures. Female, adult 129 SvJ mice (10 weeks old; Jackson Labs, USA) were anesthetized using avertin intraperitoneally. A laminectomy was performed and the spinal cord was compressed dorsoventrally at T10 by the extradural application of a modified Kerr-Lougheed aneurysm clip for 1 min (FEJOTA mouse clip, University Health Network, Canada). The skin was sutured using AUTOCLIP (9 mm, Becton Dickinson). Post-operatively, animals were kept under a heat-lamp to maintain body temperature. […]
Peptide amphiphile solution or vehicle was injected 24 hours after the spinal cord injury using borosilicate glass capillary micropipettes (Sutter Instruments) (OD: 100 μm). […] The micropipette was manually inserted to a depth of 750 μm measured from the dorsal surface of the cord and 2.5 μl of the diluted amphiphile solution or vehicle was injected at the rate of 2.5 μl/min. […]

Turning to `CCCCCCCCCCCCCCCC(=O)N[C@@H](C)C(=O)N[C@@H](C)C(=O)N[C@@H](C)C(=O)N[C@@H](C)C(=O)NCC(=O)NCC(=O)NCC(=O)N[C@@H](CCC(=O)O)C(=O)N[C@H](C(=O)N[C@@H](CCCCN)C(=O)N[C@H](C(=O)N[C@@H](C)C(=O)N[C@H](C(=O)O)C(C)C)C(C)C)[C@@H](C)CC` [IKVAV-PA] (Palmitoyl-AAAAGGGEIKVAV-OH), the “toxic effects after spinal cord injection” value with spinal cord was “no toxic effects”.
As for laminin, the neurite development result in data set [1] is “had not developed neurites”. Moreover, in data set [2], the “differentiation into neurons on 2D substrate” value was “did not lead to the significant neuron differentiation”. Moreover, in data set [3] (coated substrates), the “GFAP expression relative to cells cultured on nanofiber networks” value is “significantly greater”.
As to `CC[C@H](C)[C@H](NC(=O)[C@H](CCC(=O)O)NC(=O)[C@H](C)NC(=O)[C@H](C)NC(=O)[C@H](C)NC(=O)[C@H](CC(C)C)NC(=O)[C@H](CO)NC(=O)[C@H](CC(C)C)NC(=O)[C@H](CO)NC(=O)CCCc1ccc2ccc3cccc4ccc1c2c34)C(=O)N[C@@H](CCCCN)C(=O)N[C@H](C(=O)N[C@@H](C)C(=O)N[C@H](C(=O)O)C(C)C)C(C)C` [PA2] ({Butanoyl(4-pyren-1-yl)}-SLSLAAAEIKVAV-OH), the “presence of gel in injured cord” value in the data set on injured spinal cord (5 weeks after injection, 1% solution in isotonic glucose) is on record as “remnants could still be seen”. Besides, in the data set on injured spinal cord (mouse, in vivo), the “lifetime of the nanofiber scaffold in vivo” value is on record as “on the order of weeks”.
Take “isolucine-lysine-valine-alanine-valine [IKVAV peptide]”: in data set [2], the “expression of β-tubulin III and/or GFAP on 2D coated substrate” value is given as “nearly nonquantifiable amounts” and the “differentiation into neurons on 2D substrate” value is on record as “did not lead to the significant neuron differentiation”. In addition, in data set [3] (increasing amounts of soluble peptide, 1 day), the “neuron differentiation on titration into EQS-PA scaffolds” value is listed as “failed to induce the extent of neuron differentiation”.

The values are drawn from patent US20060247165A1, “Methods and compositions for encapsulation of cells” (priority 2005, published 2006).
